Results reported in article PMC11352961, “Peptide dendrimers transfecting CRISPR/Cas9 plasmid DNA: optimization and mechanism” (RSC Chemical Biology, 2024).
Bridge positions count the residues as written; N and C are the ends. Square brackets hold non-standard residues; d marks the D form. Side chains are listed from the residue outwards. Peptide text beside a SMILES is read from it. I, II: the chains in the order shown. * marks the point of attachment. Stearoyl = CCCCCCCCCCCCCCCCCC(=O)*

Legend:
HeLa cells = experiment: Cell viability by PrestoBlue assay after transfection, HeLa cells; type: cell-based; conditions: 4 h
HEK293 cells = experiment: Cell viability by PrestoBlue assay after transfection, HEK cells; type: cell-based; conditions: 4 h

Row | Compound | % viability HeLa cells (HeLa cells) | % viability HEK cells (HEK293 cells)
1 | CCCCCCCCCCCCCCCCCC(=O)NCCCC[C@H](NC(=O)[C@H](CCCCNC(=O)[C@H](CC(C)C)NC(=O)[C@H](CCCCN)NC(=O)[C@H](CCCCNC(=O)[C@H](CC(C)C)NC(=O)[C@H](CCCCN)NC(=O)[C@H](CCCCNC(=O)[C@H](CC(C)C)NC(=O)[C@@H](N)CCCCN)NC(=O)[C@H](CC(C)C)NC(=O)[C@@H](N)CCCCN)NC(=O)[C@H](CC(C)C)NC(=O)[C@H](CCCCN)NC(=O)[C@H](CCCCNC(=O)[C@H](CC(C)C)NC(=O)[C@@H](N)CCCCN)NC(=O)[C@H](CC(C)C)NC(=O)[C@@H](N)CCCCN)NC(=O)[C@H](CC(C)C)NC(=O)[C@H](CCCCN)NC(=O)[C@H](CCCCNC(=O)[C@H](CC(C)C)NC(=O)[C@H](CCCCN)NC(=O)[C@H](CCCCNC(=O)[C@H](CC(C)C)NC(=O)[C@@H](N)CCCCN)NC(=O)[C@H](CC(C)C)NC(=O)[C@@H](N)CCCCN)NC(=O)[C@H](CC(C)C)NC(=O)[C@H](CCCCN)NC(=O)[C@H](CCCCNC(=O)[C@H](CC(C)C)NC(=O)[C@@H](N)CCCCN)NC(=O)[C@H](CC(C)C)NC(=O)[C@@H](N)CCCCN)C(=O)N[C@@H](C)C(N)=O [Z15] (I: H-KLK([Leu-Lys])KLKKLKK(Stearoyl)A-NH2 / II: H-KLK([Leu-Lys])KLKKL / III: H-KLK([Leu-Lys])KL / IV: H-KLK([Leu-Lys])KL; amide I:6-IV:C, I:9-II:C, II:6-III:C) | 107 ± 10% | 71 ± 7%
2 | CCCCCCCCCCCCCCCCCC(=O)NCCCC[C@@H](NC(=O)[C@@H](CCCCNC(=O)[C@@H](CC(C)C)NC(=O)[C@@H](CCCCN)NC(=O)[C@@H](CCCCNC(=O)[C@@H](CC(C)C)NC(=O)[C@@H](CCCCN)NC(=O)[C@@H](CCCCNC(=O)[C@@H](CC(C)C)NC(=O)[C@H](N)CCCCN)NC(=O)[C@@H](CC(C)C)NC(=O)[C@H](N)CCCCN)NC(=O)[C@@H](CC(C)C)NC(=O)[C@@H](CCCCN)NC(=O)[C@@H](CCCCNC(=O)[C@@H](CC(C)C)NC(=O)[C@H](N)CCCCN)NC(=O)[C@@H](CC(C)C)NC(=O)[C@H](N)CCCCN)NC(=O)[C@@H](CC(C)C)NC(=O)[C@@H](CCCCN)NC(=O)[C@@H](CCCCNC(=O)[C@@H](CC(C)C)NC(=O)[C@@H](CCCCN)NC(=O)[C@@H](CCCCNC(=O)[C@@H](CC(C)C)NC(=O)[C@H](N)CCCCN)NC(=O)[C@@H](CC(C)C)NC(=O)[C@H](N)CCCCN)NC(=O)[C@@H](CC(C)C)NC(=O)[C@@H](CCCCN)NC(=O)[C@@H](CCCCNC(=O)[C@@H](CC(C)C)NC(=O)[C@H](N)CCCCN)NC(=O)[C@@H](CC(C)C)NC(=O)[C@H](N)CCCCN)C(=O)N[C@H](CS)C(N)=O [Z20] (I: H-[dK][dL][dK]([dL-dK])[dK][dL][dK][dK][dL][dK][dK](Stearoyl)[dC]-NH2 / II: H-[dK][dL][dK]([dL-dK])[dK][dL][dK][dK][dL] / III: H-[dK][dL][dK]([dL-dK])[dK][dL] / IV: H-[dK][dL][dK]([dL-dK])[dK][dL]; amide I:6-IV:C, I:9-II:C, II:6-III:C) | 85 ± 9% | 85 ± 9%
3 | CCCCCCCCCCCCCCCCCC(=O)NCCCC[C@@H](NC(=O)[C@@H](CCCCNC(=O)CCCCCCCCCCCCCCCCC)NC(=O)[C@@H](CCCCNC(=O)[C@@H](CC(C)C)NC(=O)[C@@H](CCCCN)NC(=O)[C@@H](CCCCNC(=O)[C@@H](CC(C)C)NC(=O)[C@@H](CCCCN)NC(=O)[C@@H](CCCCNC(=O)[C@@H](CC(C)C)NC(=O)[C@H](N)CCCCN)NC(=O)[C@@H](CC(C)C)NC(=O)[C@H](N)CCCCN)NC(=O)[C@@H](CC(C)C)NC(=O)[C@@H](CCCCN)NC(=O)[C@@H](CCCCNC(=O)[C@@H](CC(C)C)NC(=O)[C@H](N)CCCCN)NC(=O)[C@@H](CC(C)C)NC(=O)[C@H](N)CCCCN)NC(=O)[C@@H](CC(C)C)NC(=O)[C@@H](CCCCN)NC(=O)[C@@H](CCCCNC(=O)[C@@H](CC(C)C)NC(=O)[C@@H](CCCCN)NC(=O)[C@@H](CCCCNC(=O)[C@@H](CC(C)C)NC(=O)[C@H](N)CCCCN)NC(=O)[C@@H](CC(C)C)NC(=O)[C@H](N)CCCCN)NC(=O)[C@@H](CC(C)C)NC(=O)[C@@H](CCCCN)NC(=O)[C@@H](CCCCNC(=O)[C@@H](CC(C)C)NC(=O)[C@H](N)CCCCN)NC(=O)[C@@H](CC(C)C)NC(=O)[C@H](N)CCCCN)C(N)=O [Z27] (I: H-[dK][dL][dK]([dL-dK])[dK][dL][dK][dK][dL][dK][dK](Stearoyl)[dK](Stearoyl)-NH2 / II: H-[dK][dL][dK]([dL-dK])[dK][dL][dK][dK][dL] / III: H-[dK][dL][dK]([dL-dK])[dK][dL] / IV: H-[dK][dL][dK]([dL-dK])[dK][dL]; amide I:6-IV:C, I:9-II:C, II:6-III:C) | 94 ± 5% | 74.8 ± 0.7%
4 | CCCCCCCCCCCCCCCCCC(=O)NCCCC[C@@H](NC(=O)[C@@H](CCCCNC(=O)[C@@H](CC(C)C)NC(=O)[C@@H](CC(C)C)NC(=O)[C@@H](CCCCNC(=O)[C@@H](CC(C)C)NC(=O)[C@@H](CC(C)C)NC(=O)[C@@H](CCCCNC(=O)[C@@H](CC(C)C)NC(=O)[C@H](N)CCCCN)NC(=O)[C@@H](CC(C)C)NC(=O)[C@H](N)CCCCN)NC(=O)[C@@H](CC(C)C)NC(=O)[C@@H](CC(C)C)NC(=O)[C@@H](CCCCNC(=O)[C@@H](CC(C)C)NC(=O)[C@H](N)CCCCN)NC(=O)[C@@H](CC(C)C)NC(=O)[C@H](N)CCCCN)NC(=O)[C@@H](CC(C)C)NC(=O)[C@@H](CC(C)C)NC(=O)[C@@H](CCCCNC(=O)[C@@H](CC(C)C)NC(=O)[C@@H](CC(C)C)NC(=O)[C@@H](CCCCNC(=O)[C@@H](CC(C)C)NC(=O)[C@H](N)CCCCN)NC(=O)[C@@H](CC(C)C)NC(=O)[C@H](N)CCCCN)NC(=O)[C@@H](CC(C)C)NC(=O)[C@@H](CC(C)C)NC(=O)[C@@H](CCCCNC(=O)[C@@H](CC(C)C)NC(=O)[C@H](N)CCCCN)NC(=O)[C@@H](CC(C)C)NC(=O)[C@H](N)CCCCN)C(N)=O [Z32] (I: H-[dK][dL][dK]([dL-dK])[dL][dL][dK][dL][dL][dK][dK](Stearoyl)-NH2 / II: H-[dK][dL][dK]([dL-dK])[dL][dL][dK][dL][dL] / III: H-[dK][dL][dK]([dL-dK])[dL][dL] / IV: H-[dK][dL][dK]([dL-dK])[dL][dL]; amide I:6-IV:C, I:9-II:C, II:6-III:C) | 97 ± 4% | 111 ± 1%
5 | CCCCCCCCCCCCCCCCCC(=O)NCCCC[C@H](NC(=O)[C@H](CCCCNC(=O)[C@H](CC(C)C)NC(=O)[C@H](CCCNC(=N)N)NC(=O)[C@H](CCCCNC(=O)[C@H](CC(C)C)NC(=O)[C@H](CCCNC(=N)N)NC(=O)[C@H](CCCCNC(=O)[C@H](CC(C)C)NC(=O)[C@@H](N)CCCNC(=N)N)NC(=O)[C@H](CC(C)C)NC(=O)[C@@H](N)CCCNC(=N)N)NC(=O)[C@H](CC(C)C)NC(=O)[C@H](CCCNC(=N)N)NC(=O)[C@H](CCCCNC(=O)[C@H](CC(C)C)NC(=O)[C@@H](N)CCCNC(=N)N)NC(=O)[C@H](CC(C)C)NC(=O)[C@@H](N)CCCNC(=N)N)NC(=O)[C@H](CC(C)C)NC(=O)[C@H](CCCNC(=N)N)NC(=O)[C@H](CCCCNC(=O)[C@H](CC(C)C)NC(=O)[C@H](CCCNC(=N)N)NC(=O)[C@H](CCCCNC(=O)[C@H](CC(C)C)NC(=O)[C@@H](N)CCCNC(=N)N)NC(=O)[C@H](CC(C)C)NC(=O)[C@@H](N)CCCNC(=N)N)NC(=O)[C@H](CC(C)C)NC(=O)[C@H](CCCNC(=N)N)NC(=O)[C@H](CCCCNC(=O)[C@H](CC(C)C)NC(=O)[C@@H](N)CCCNC(=N)N)NC(=O)[C@H](CC(C)C)NC(=O)[C@@H](N)CCCNC(=N)N)C(=O)N[C@@H](C)C(N)=O [Z25] (I: H-RLK([Leu-Arg])RLKRLKK(Stearoyl)A-NH2 / II: H-RLK([Leu-Arg])RLKRL / III: H-RLK([Leu-Arg])RL / IV: H-RLK([Leu-Arg])RL; amide I:6-IV:C, I:9-II:C, II:6-III:C) | 104 ± 8% | 85 ± 2%
6 | CCCCCCCCCCCCCCCCCC(=O)NCCCC[C@@H](NC(=O)[C@@H](CCCCNC(=O)[C@@H](CC(C)C)NC(=O)[C@@H](CC(C)C)NC(=O)[C@@H](CCCCNC(=O)[C@@H](CC(C)C)NC(=O)[C@@H](CC(C)C)NC(=O)[C@@H](CCCCNC(=O)[C@@H](CC(C)C)NC(=O)[C@H](N)CCCNC(=N)N)NC(=O)[C@@H](CC(C)C)NC(=O)[C@H](N)CCCNC(=N)N)NC(=O)[C@@H](CC(C)C)NC(=O)[C@@H](CC(C)C)NC(=O)[C@@H](CCCCNC(=O)[C@@H](CC(C)C)NC(=O)[C@H](N)CCCNC(=N)N)NC(=O)[C@@H](CC(C)C)NC(=O)[C@H](N)CCCNC(=N)N)NC(=O)[C@@H](CC(C)C)NC(=O)[C@@H](CC(C)C)NC(=O)[C@@H](CCCCNC(=O)[C@@H](CC(C)C)NC(=O)[C@@H](CC(C)C)NC(=O)[C@@H](CCCCNC(=O)[C@@H](CC(C)C)NC(=O)[C@H](N)CCCNC(=N)N)NC(=O)[C@@H](CC(C)C)NC(=O)[C@H](N)CCCNC(=N)N)NC(=O)[C@@H](CC(C)C)NC(=O)[C@@H](CC(C)C)NC(=O)[C@@H](CCCCNC(=O)[C@@H](CC(C)C)NC(=O)[C@H](N)CCCNC(=N)N)NC(=O)[C@@H](CC(C)C)NC(=O)[C@H](N)CCCNC(=N)N)C(N)=O [Z37] (I: H-[dR][dL][dK]([dL-dR])[dL][dL][dK][dL][dL][dK][dK](Stearoyl)-NH2 / II: H-[dR][dL][dK]([dL-dR])[dL][dL][dK][dL][dL] / III: H-[dR][dL][dK]([dL-dR])[dL][dL] / IV: H-[dR][dL][dK]([dL-dR])[dL][dL]; amide I:6-IV:C, I:9-II:C, II:6-III:C) | 95 ± 5% | 103 ± 1%
